PubChem BioAssay (NCI)
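Five concentrations, 48 hours, 96-well plates. The concentration for full growth arrest is given as TGI.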

Columns and labels:
Experiment in all cases: growth of human tumour cells (NCI), 48 h
CCRF-CEM leukemia = system: CCRF-CEM leukemia
HS 578T breast = system: HS 578T breast
HT29 colon = system: HT29 colon
K-562 leukemia = system: K-562 leukemia
KM12 colon = system: KM12 colon
MALME-3M melanoma = system: MALME-3M melanoma
MOLT-4 leukemia = system: MOLT-4 leukemia
OVCAR-3 ovarian = system: OVCAR-3 ovarian
SF-539 CNS = system: SF-539 CNS
SW-620 colon = system: SW-620 colon

CCNC(=S)NNC(=O)C12CC3CC(CC(C3)C1)C2
TGI (CCRF-CEM leukemia): > 100 µM | TGI (HS 578T breast): > 100 µM | TGI (HT29 colon): > 100 µM | TGI (K-562 leukemia): > 100 µM | TGI (KM12 colon): > 100 µM | TGI (MALME-3M melanoma): > 100 µM | TGI (MOLT-4 leukemia): > 100 µM | TGI (OVCAR-3 ovarian): > 100 µM | TGI (SF-539 CNS): > 100 µM | TGI (SW-620 colon): > 100 µM

COc1cc2c(cc1OC)C1C3CCCCC3CCN1CC2 (stereo not given)
TGI (CCRF-CEM leukemia): > 100 µM | TGI (HS 578T breast): > 100 µM | TGI (HT29 colon): > 100 µM | TGI (K-562 leukemia): > 100 µM | TGI (KM12 colon): > 100 µM | TGI (MALME-3M melanoma): > 100 µM | TGI (MOLT-4 leukemia): > 100 µM | TGI (OVCAR-3 ovarian): > 100 µM | TGI (SF-539 CNS): > 100 µM | TGI (SW-620 colon): > 100 µM

CC1(C)OC[C@@H](O)[C@H](C#N)CO1
TGI (CCRF-CEM leukemia): > 100 µM | TGI (HS 578T breast): > 100 µM | TGI (HT29 colon): > 100 µM | TGI (K-562 leukemia): > 100 µM | TGI (KM12 colon): > 100 µM | TGI (MALME-3M melanoma): > 100 µM | TGI (MOLT-4 leukemia): > 100 µM | TGI (OVCAR-3 ovarian): > 100 µM | TGI (SF-539 CNS): > 100 µM | TGI (SW-620 colon): > 100 µM

COc1cc(O)c2c(c1)C(=O)c1cc3c(c(O)c1C2=O)C(OC1OC(C)C(OC)C(O)C1OC)C(OC)C(C)(O)C3=O (stereo not given)
TGI (CCRF-CEM leukemia): 41.6 µM | TGI (HS 578T breast): 33.3 µM | TGI (HT29 colon): 11.8 µM | TGI (K-562 leukemia): 19.4 µM | TGI (KM12 colon): 15.9 µM | TGI (MALME-3M melanoma): 5.85 µM | TGI (MOLT-4 leukemia): 12.2 µM | TGI (OVCAR-3 ovarian): 22.6 µM | TGI (SF-539 CNS): 17.8 µM | TGI (SW-620 colon): 18.1 µM

CCOS(C)(=O)=O
TGI (CCRF-CEM leukemia): > 100 µM | TGI (HS 578T breast): > 100 µM | TGI (HT29 colon): > 100 µM | TGI (K-562 leukemia): > 100 µM | TGI (KM12 colon): > 100 µM | TGI (MALME-3M melanoma): > 100 µM | TGI (MOLT-4 leukemia): > 100 µM | TGI (OVCAR-3 ovarian): > 100 µM | TGI (SF-539 CNS): > 100 µM | TGI (SW-620 colon): > 100 µM

CC(C)SC(=S)Sc1c(Cl)c(Cl)nc(Cl)c1Cl
TGI (CCRF-CEM leukemia): 6.09 µM | TGI (HS 578T breast): 44.7 µM | TGI (HT29 colon): 12.5 µM | TGI (K-562 leukemia): 10.7 µM | TGI (KM12 colon): 21.4 µM | TGI (MALME-3M melanoma): 30.1 µM | TGI (MOLT-4 leukemia): 8.69 µM | TGI (OVCAR-3 ovarian): 3.52 µM | TGI (SF-539 CNS): 24.8 µM | TGI (SW-620 colon): 15.9 µM

COC(=O)/C=C\C(C#N)(C#N)N=Cc1ccc(C)cc1
TGI (CCRF-CEM leukemia): 2.1 µM | TGI (HS 578T breast): 45.3 µM | TGI (HT29 colon): 18.7 µM | TGI (K-562 leukemia): 16.7 µM | TGI (KM12 colon): 35.3 µM | TGI (MALME-3M melanoma): 5.5 µM | TGI (MOLT-4 leukemia): 3.77 µM | TGI (OVCAR-3 ovarian): 5.82 µM | TGI (SF-539 CNS): 10.9 µM | TGI (SW-620 colon): > 27.9 µM

N#CC(C#N)=C1SC(=Nc2ccccc2)C(=Nc2ccccc2)N1c1ccccc1
TGI (CCRF-CEM leukemia): 6.35 µM | TGI (HS 578T breast): > 93 µM | TGI (HT29 colon): > 69.9 µM | TGI (K-562 leukemia): 7.12 µM | TGI (KM12 colon): > 53.8 µM | TGI (MALME-3M melanoma): 67.6 µM | TGI (MOLT-4 leukemia): 11.8 µM | TGI (OVCAR-3 ovarian): 6.04 µM | TGI (SF-539 CNS): 22.5 µM | TGI (SW-620 colon): 11.5 µM

Cc1cc(/N=C/c2ccc(N(C)C)cc2)n(-c2ccccc2)n1
TGI (CCRF-CEM leukemia): > 100 µM | TGI (HS 578T breast): > 100 µM | TGI (HT29 colon): > 100 µM | TGI (K-562 leukemia): > 100 µM | TGI (KM12 colon): > 100 µM | TGI (MALME-3M melanoma): > 100 µM | TGI (MOLT-4 leukemia): > 100 µM | TGI (OVCAR-3 ovarian): 82.4 µM | TGI (SF-539 CNS): > 100 µM | TGI (SW-620 colon): > 100 µM
